Assay results taken from patent US4469691A, “Hexamethylenetetramine-N-acetyl-thiazolidine-4-carboxylate, a process for its preparation and a pharmaceutical composition containing it” (Ausonia Farmaceutici s.r.l., priority 1982, dated 1984).
Where two headings read alike, the source gives them in different places.

Key:
Swiss mice = test: Acute oral toxicity in Swiss mice (Litchfield and Wilcoxon); type: in vivo; details: mouse
Wistar rats = test: Acute oral toxicity in Wistar rats (Litchfield and Wilcoxon); type: in vivo; details: rat
Salmonella spp = test: In vitro antibacterial activity, M.I.C., Salmonella spp; type: cell-based; details: of 10 strains, pH 5.5
Description: Salmonella spp (10 strains)
(§1) As culture medium, Mueller Hinton Agar at pH 5.5 was used. The compounds under examination were dissolved in and diluted by sterile saline; 1 ml of the diluted solutions thus obtained was poured in Petri's dishes and 19 ml of Mueller Hinton Agar were subsequently added thereto.
(§2) The inoculation of bacteria was performed using a multi point inoculator and a 18 hour growth broth culture of each of the strains under examination. With this method the bacterial inoculum is equal to about 10^5 colony-forming units (CFU) per point. Reading of the results was performed after cultivating the plates for 18 hours at 37° C.

Pseudomonas aeruginosa = test: In vitro antibacterial activity, M.I.C., Pseudomonas aeruginosa; type: cell-based; details: 62.5 mcg/ml (EMTA; AFP 829 equimolar); of 10 strains; pH 5.5
Description: as §1, §2

Proteus spp = test: In vitro antibacterial activity, M.I.C., Proteus spp; type: cell-based; details: of 10 strains, pH 5.5
Description: Proteus spp (10 strains)
as §1, §2

E. coli = test: In vitro antibacterial activity, M.I.C., E. coli; type: cell-based; details: of 10 strains, pH 5.5
Description: as §1, §2

Klebsiella spp = test: In vitro antibacterial activity, M.I.C., Klebsiella spp; type: cell-based; details: of 7 strains, pH 5.5
Description: Klebsiella spp (7 strains)
as §1, §2

Serratia spp = test: In vitro antibacterial activity, M.I.C., Serratia spp; type: cell-based; details: of 5 strains, pH 5.5
Description: Serratia spp (5 strains)
as §1, §2

Citrobacter spp = test: In vitro antibacterial activity, M.I.C., Citrobacter spp; type: cell-based; details: of 3 strains, pH 5.5
Description: Citrobacter spp (3 strains).
as §1, §2

Staphylococcus aureus = test: In vitro antibacterial activity, M.I.C., Staphylococcus aureus; type: cell-based; details: of 15 strains, pH 5.5
Description: as §1, §2

Streptococcus = test: In vitro antibacterial activity, M.I.C., Streptococcus (pyogenes); type: cell-based; details: of 15 strains, pH 5.5
Description: as §1, §2

Enterococcus = test: In vitro antibacterial activity, M.I.C., Enterococcus (Streptococcus faecalis); type: cell-based; details: of 5 strains, pH 5.5
Description: as §1, §2

[1] = system: 90 strains of different Gram-positive and Gram-negative bacterial species; test: In vitro antibacterial activity, all 90 strains; type: cell-based, Gram-positive and Gram-negative bacteria; details: for Antibacterial activity (in words): all microorganisms, AFP 829 versus EMTA
Description: as §1, §2

strain of Ps. aeruginosa = system: strain of Ps. aeruginosa; design: species or system Sprague Dawley rats; Ps. aeruginosa; details: rat, in vivo, ip
Description: Each group of animals received the substances i.p. in […] of sterile saline; the animals were placed in metabolic cages with free access to water. Urine samples were collected at the following intervals:
1 ml of nutrient broth at pH 5.5, containing approximately […] colony-forming units of a strain of Ps. aeruginosa sensitive to the action of both substances, was added to 1 ml of the urine or the standard solution of the two drugs dissolved in distilled water.
Standard and urine samples were sequentially diluted twofold by means of the same broth containing the microorganisms until a 1:2048 dilution was achieved.
After overnight incubation at 37° C. the maximum dilution (limit dilution) of the substances or samples inhibiting bacterial growth was determined.
Therefore the concentration of the substances in the urine samples was determined using the formula below: [formula]

male Wistar rats = test: Mucosecretolytic activity in male Wistar rats (method of H. Mawatari); type: in vivo, rat; details: for % increase of sodium fluorescein compared with controls: 250 mg/Kg p.o., 10 animals; for Mucosecretolytic activity (in words): oral, rats
Description: Mucosecretolytic activity was determined in male Wistar rats after AFP 829 administration given via the oral route. The method described by H. Mawatari was used for the determination [H. Mawatari, Kagoshima Daiagaku, Igaku Zasshi 27, 561 (1976)]. A drug of known activity--carboxymethylcysteine--was used as the reference standard.

liver affections = test: Protective activity against liver affections
[2] = in vivo, po
[3] = Acute oral toxicity in Swiss mice (Litchfield and Wilcoxon); type: in vivo; details: in vivo, mouse
[4] = Acute oral toxicity in Wistar rats (Litchfield and Wilcoxon); type: in vivo; details: in vivo, rat
[5] = in vivo; cited from earlier work
[6] = Pharmacokinetics in laboratory animals after oral administration
[7] = 31.2 mcg/ml (EMTA; AFP 829 equimolar)
[8] = 62.5 mcg/ml (EMTA; AFP 829 equimolar)
[9] = 125 mcg/ml (EMTA; AFP 829 equimolar)
[10] = 15.6 mcg/ml (EMTA; AFP 829 equimolar)
[11] = listed as hexamethylenetetramine-N-acetyl-thiazolidine-4-carboxylate (I)
[12] = 250 mcg/ml (EMTA; AFP 829 equimolar)

Compound | M.I.C., cumulative number of strains inhibited (Salmonella spp; [8]) | M.I.C., cumulative number of strains inhibited (Pseudomonas aeruginosa) | M.I.C., cumulative number of strains inhibited (Proteus spp; [8]) | M.I.C., cumulative number of strains inhibited (E. coli; [8]) | M.I.C., cumulative number of strains inhibited (Klebsiella spp; [8]) | M.I.C., cumulative number of strains inhibited (Serratia spp; [8]) | M.I.C., cumulative number of strains inhibited (Serratia spp; [9]) | M.I.C., cumulative number of strains inhibited (Citrobacter spp; [8]) | M.I.C., cumulative number of strains inhibited (Staphylococcus aureus; [8]) | M.I.C., cumulative number of strains inhibited (Staphylococcus aureus; [9]) | M.I.C., cumulative number of strains inhibited (Streptococcus; [10]) | M.I.C., cumulative number of strains inhibited (Streptococcus; [8]) | M.I.C., cumulative number of strains inhibited (Streptococcus; [9]) | M.I.C., cumulative number of strains inhibited (Enterococcus; [8]) | Antibacterial activity (in words) [1] | % increase of sodium fluorescein compared with controls (male Wistar rats) | LD50 [3] | LD50 [4] | further results
C1N2CN3CN1CN(C2)C3.CC(=O)N1CSCC1C(=O)O (centres unmarked) [AFP 829, hexamethylenetetramine-N-acetyl-thiazolidine-4-carboxylate] | 10 strains | 10 strains | 10 strains | 10 strains | 7 strains | 4 strains | 5 strains | 3 strains | 13 strains | 15 strains | 5 strains | 12 strains | 15 strains | 5 strains | active in comparison with all of the microorganisms used | 96.1% |  |  | LD50 (Swiss mice): 1350 mg/kg; LD50 (Wistar rats): 2100 mg/kg; M.I.C., cumulative number of strains inhibited (Salmonella spp; [7]): 1 strains; M.I.C., cumulative number of strains inhibited (Proteus spp; [7]): 3 strains; M.I.C., cumulative number of strains inhibited (Enterococcus; [7]): 1 strains; M.I.C.: no microorganism resistant to concentrations higher than ([1]; all microorganisms used, pH 5.5): ≤ 125 µg/mL; Antibacterial activity (in words) [1, 11]: higher antibacterial activity than hexamethylenetetramine; Concentration in urine (strain of Ps. aeruginosa; 1.5 h): 2000 mcg/ml of urine; Concentration in urine (strain of Ps. aeruginosa; 2.5 h): 4000 mcg/ml of urine; Concentration in urine (strain of Ps. aeruginosa; 4.5 h): 4000 mcg/ml of urine; Concentration in urine (strain of Ps. aeruginosa; 6.5 h): 1000 mcg/ml of urine; Mucosecretolytic activity (in words) (male Wistar rats): powerful mucosecretolytic activity, markedly higher than the standard substance; Mucosecretolytic activity (in words) (male Wistar rats; [11]): remarkable mucosecretolytic properties; Protective activity against liver affections (in words) (liver affections): protective activity against liver affections; Occurrence in urine (in words) [2]: selectively occur in the urine along with the active metabolites thereof
C1N2CN3CN1CN(C2)C3 [EMTA, hexamethylenetetramine] | 9 strains | 10 strains | 10 strains | 8 strains | 6 strains | 4 strains | 5 strains | 1 strains | 10 strains | 14 strains | 7 strains | 11 strains | 13 strains | 4 strains | slightly less active |  | 1500 mg/kg | 1050 mg/kg | M.I.C., cumulative number of strains inhibited (Salmonella spp; [9]): 10 strains; M.I.C., cumulative number of strains inhibited (E. coli; [9]): 10 strains; M.I.C., cumulative number of strains inhibited (Klebsiella spp; [9]): 7 strains; M.I.C., cumulative number of strains inhibited (Citrobacter spp; [9]): 3 strains; M.I.C., cumulative number of strains inhibited (Staphylococcus aureus; [12]): 15 strains; M.I.C., cumulative number of strains inhibited (Streptococcus; [12]): 14 strains; M.I.C., cumulative number of strains inhibited (Streptococcus; 500 mcg/ml (EMTA; AFP 829 equimolar)): 15 strains; M.I.C., cumulative number of strains inhibited (Enterococcus; [9]): 5 strains; Converted to formaldehyde in acid urine [5]: about 15%; Eliminated unchanged in the urine [5]: 90%; Occurrence in urine (in words) [6]: selectively occur in the urine along with the active metabolites thereof
O=C(O)C1CSCN1 (centres unmarked) [TCA, thiazolidine-4-carboxylic acid] |  |  |  |  |  |  |  |  |  |  |  |  |  |  |  |  | 400 mg/kg | 800 mg/kg | 
carboxymethylcysteine |  |  |  |  |  |  |  |  |  |  |  |  |  |  |  | 33.4% |  |  | 
